Test results taken from PMC8780828 (Viruses, 2021).

Columns and labels:
P-gp = test: in vitro; conditions: human
CYP3A = CYP3A (Homo sapiens, UniProt P08684); test: in vitro; conditions: microsomes
CYP1A2 = CYP1A2 (Homo sapiens, UniProt P05177); test: in vitro; conditions: microsomes, pH 7.4
CYP2C19 = CYP2C19 (Homo sapiens, UniProt P33261); test: biochemical
CYP2C9 = CYP2C9 (Homo sapiens, UniProt P11712); test: in vitro; conditions: microsomes, pH 7.4
Chain of CYP2C9 (P11712 whole entry): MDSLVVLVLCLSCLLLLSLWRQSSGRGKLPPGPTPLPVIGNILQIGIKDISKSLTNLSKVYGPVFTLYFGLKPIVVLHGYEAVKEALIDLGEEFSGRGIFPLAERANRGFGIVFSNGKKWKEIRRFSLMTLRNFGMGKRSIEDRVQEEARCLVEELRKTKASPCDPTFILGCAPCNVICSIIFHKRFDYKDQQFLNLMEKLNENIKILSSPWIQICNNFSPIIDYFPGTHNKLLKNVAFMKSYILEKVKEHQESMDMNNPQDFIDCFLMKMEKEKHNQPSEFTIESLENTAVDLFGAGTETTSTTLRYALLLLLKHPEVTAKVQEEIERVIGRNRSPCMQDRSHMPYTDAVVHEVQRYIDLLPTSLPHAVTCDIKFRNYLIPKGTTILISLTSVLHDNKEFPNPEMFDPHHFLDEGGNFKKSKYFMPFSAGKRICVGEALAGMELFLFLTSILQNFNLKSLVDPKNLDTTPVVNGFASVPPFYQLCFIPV

Chain of CYP1A2 (P05177 whole entry): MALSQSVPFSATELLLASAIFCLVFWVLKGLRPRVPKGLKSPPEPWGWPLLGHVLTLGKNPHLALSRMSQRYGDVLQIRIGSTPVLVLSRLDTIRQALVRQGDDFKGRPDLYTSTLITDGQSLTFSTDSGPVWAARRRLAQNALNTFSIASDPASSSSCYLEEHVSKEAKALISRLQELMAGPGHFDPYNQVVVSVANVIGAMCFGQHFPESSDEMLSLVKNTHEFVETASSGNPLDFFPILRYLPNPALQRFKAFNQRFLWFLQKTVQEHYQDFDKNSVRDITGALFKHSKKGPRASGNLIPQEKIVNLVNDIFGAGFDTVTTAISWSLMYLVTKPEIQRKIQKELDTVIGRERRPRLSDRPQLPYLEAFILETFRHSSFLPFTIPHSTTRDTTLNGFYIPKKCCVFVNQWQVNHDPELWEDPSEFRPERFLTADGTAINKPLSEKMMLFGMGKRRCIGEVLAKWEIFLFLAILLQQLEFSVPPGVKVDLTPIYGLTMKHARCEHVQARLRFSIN
Chain of CYP3A (P08684 2-503): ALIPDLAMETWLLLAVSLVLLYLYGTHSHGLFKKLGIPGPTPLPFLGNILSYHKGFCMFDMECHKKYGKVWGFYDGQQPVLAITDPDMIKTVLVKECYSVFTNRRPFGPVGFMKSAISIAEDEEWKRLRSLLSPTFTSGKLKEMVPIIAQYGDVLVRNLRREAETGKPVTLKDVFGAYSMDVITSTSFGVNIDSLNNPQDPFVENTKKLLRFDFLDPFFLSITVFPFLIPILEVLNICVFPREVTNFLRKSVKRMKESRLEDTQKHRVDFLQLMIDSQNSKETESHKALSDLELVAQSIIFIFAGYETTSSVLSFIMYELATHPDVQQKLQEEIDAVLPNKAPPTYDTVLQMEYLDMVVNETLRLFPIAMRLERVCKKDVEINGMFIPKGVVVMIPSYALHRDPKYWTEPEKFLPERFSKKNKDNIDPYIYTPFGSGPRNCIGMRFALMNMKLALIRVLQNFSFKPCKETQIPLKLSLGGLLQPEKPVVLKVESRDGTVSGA
Chain of CYP2C19 (P33261 whole entry): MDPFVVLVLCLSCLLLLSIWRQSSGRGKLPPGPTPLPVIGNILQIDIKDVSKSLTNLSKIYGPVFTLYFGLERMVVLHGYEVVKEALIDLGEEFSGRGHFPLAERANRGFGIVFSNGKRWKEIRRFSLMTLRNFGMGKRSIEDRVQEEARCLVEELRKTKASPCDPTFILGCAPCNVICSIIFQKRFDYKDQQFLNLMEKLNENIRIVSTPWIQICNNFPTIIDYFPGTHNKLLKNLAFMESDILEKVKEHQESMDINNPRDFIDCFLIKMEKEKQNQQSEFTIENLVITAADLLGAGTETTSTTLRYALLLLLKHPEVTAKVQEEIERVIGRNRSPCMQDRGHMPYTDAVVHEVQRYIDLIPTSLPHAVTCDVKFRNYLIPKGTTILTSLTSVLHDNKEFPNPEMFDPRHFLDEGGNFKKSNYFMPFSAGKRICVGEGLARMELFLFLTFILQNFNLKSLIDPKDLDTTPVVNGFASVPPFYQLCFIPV

SMILES: O=C(O)c1cc(-c2ccc(/C=C3\SC(=S)N(CCc4ccccc4)C3=O)o2)ccc1Cl [NBCoV1]
- Papp A→B (P-gp; Caco-2, pH 7.4, Caco-2 permeability (mean Papp) A-to-B, 5 µM): 16.9 ×10⁻⁶ cm/s
- Papp B→A (P-gp; Caco-2, pH 7.4, Caco-2 permeability (mean Papp) B-to-A, 5 µM): 20.4 ×10⁻⁶ cm/s
- Papp A→B (P-gp; Caco-2, pH 7.4, Papp A-to-B, single replicates (R1, R2)): 20.4 ×10⁻⁶ cm/s
- Papp B→A (P-gp; Caco-2, pH 7.4, Papp B-to-A, single replicates (R1, R2)): 20.9 ×10⁻⁶ cm/s
- Caco-2 permeability (mean Papp) A-to-B (Caco-2 cells; 5 µM): 2.05e-05 cm/s
- Caco-2 permeability (mean Papp) B-to-A (Caco-2 cells; 5 µM): 2.36e-05 cm/s
- P-gp Substrate classification (Caco-2 cells; Caco-2): Negative
- IC50 (CYP3A; pH 7.4): > 10 µM
- activity at 0.0137 µM (CYP3A; pH 7.4, % of Control Enzyme Activity, 0.0137 μM, n=1): 96.7%
- activity at 0.0412 µM (CYP3A; pH 7.4, % of Control Enzyme Activity, 0.0412 μM, n=1): 97%
- activity at 0.123 µM (CYP3A; pH 7.4, % of Control Enzyme Activity, 0.123 μM, n=1): 94.5%
- activity at 0.37 µM (CYP3A; pH 7.4, % of Control Enzyme Activity, 0.370 μM, n=1): 95.1%
- activity at 1.11 µM (CYP3A; pH 7.4, % of Control Enzyme Activity, 1.11 μM, n=1): 95.9%
- activity at 3.33 µM (CYP3A; pH 7.4, % of Control Enzyme Activity, 3.33 μM, n=1): 88.2%
- activity at 10 µM (CYP3A; pH 7.4, % of Control Enzyme Activity, 10 μM, n=1): 61.6%
- activity at 0.0137 µM (CYP1A2): 99.2%
- activity at 0.0412 µM (CYP1A2): 96.7%
- activity at 0.123 µM (CYP1A2): 93.8%
- activity at 0.37 µM (CYP1A2): 92.2%
- activity at 1.11 µM (CYP1A2): 89.8%
- activity at 3.33 µM (CYP1A2): 69.5%
- activity at 10 µM (CYP1A2): 41.3%
- IC50 (CYP2C19): 7.31 µM
- activity at 0.0137 µM (CYP2C9): 99.4%
- activity at 0.0412 µM (CYP2C9): 98.2%
- activity at 0.123 µM (CYP2C9): 97.2%
- activity at 0.37 µM (CYP2C9): 95.1%
- activity at 1.11 µM (CYP2C9): 85.1%
- activity at 3.33 µM (CYP2C9): 59.9%
- activity at 10 µM (CYP2C9): 29.8%
